In ChEMBL document CHEMBL2029347, “Identification of blapsins A and B as potent small-molecule 14-3-3 inhibitors from the insect Blaps japanensis” (Bioorg Med Chem Lett, 2012) one finds IC50 data, which are given here for two molecules.

For assay [1], the target named is T1, 14-3-3 protein gamma (Homo sapiens, UniProt P61981).
T1 sequence (P61981 whole entry): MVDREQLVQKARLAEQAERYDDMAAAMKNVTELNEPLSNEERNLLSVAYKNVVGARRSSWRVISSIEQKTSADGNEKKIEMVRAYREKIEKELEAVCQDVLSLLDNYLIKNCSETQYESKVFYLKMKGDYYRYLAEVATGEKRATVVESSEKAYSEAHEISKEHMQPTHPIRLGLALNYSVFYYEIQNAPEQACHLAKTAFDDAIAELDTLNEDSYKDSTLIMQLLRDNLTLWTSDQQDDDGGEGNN
The assay can be described thus: Inhibition of recombinant GST-tagged 14-3-3gamma interaction with TMR-pS259-Raf peptide after 30 mins by fluorescence polarization assay. A general note: In fluorescence polarisation assays a small probe gives low polarisation when free and higher when bound to something large.

The target of assay [2] is T1, 14-3-3 protein gamma. The assay can be described thus: Inhibition of recombinant GST-tagged 14-3-3gamma interaction with PRAS40 in Cos7 cell lysate by ELISA. It counts as cell-free. In general terms: An ELISA detects its analyte on a solid surface through an enzyme-linked reagent.

pIC50: −log10 of the molar value.

For orientation: pIC50 means the IC50 on a negative log10 scale, so that one unit is a factor of ten. `O=C(Cc1ccc(O)c(O)c1)OCCc1ccc(O)c(O)c1` [BLAPSIN A]: the pIC50 at 14-3-3 protein gamma [1] is 5.70; on 14-3-3 protein gamma [2], 5.04.
The matching figures for `Oc1ccc(C2OCCc3cc(O)c(O)cc32)cc1O` (racemic) [BLAPSIN B]: 5.60 and 5.00.
